Series [1] has as its system NCI-H1581. The series can be described thus: Antitumor activity against human NCI-H1581 cells xenografted in BALB/c nude mouse assessed as tumor growth inhibition once daily at 50 mg/kg, ip for 24 days relative to control. The following applies: NCI-H1581, 576 h, read-out: TGI. (Xenograft models place foreign cells or tissue in a host animal.)
Series [2] in a line: Antiproliferative activity against human UMUC14 cells assessed as reduction in cell viability by SRB assay. The format is functional, cell-based.
The nature of series [3]: AUC (0 to infinity) in CD-1 mouse at 3 mg/kg, ip measured after 24 hrs by LC-MS/MS analysis. The class given is ADME, organism-based. The following applies: in vivo.
A short description of series [4]: Half life in CD-1 mouse at 3 mg/kg, ip measured after 24 hrs by LC-MS/MS analysis. The format is ADME, organism-based. Particulars: in vivo.
Series [5] addresses Vascular endothelial growth factor receptor 2 (Homo sapiens, UniProt P35968). Kind of series: Inhibition of VEGFR2 (unknown origin).
For a further series, the system named is SNU-16. Kind of series: Antiproliferative activity against human SNU-16 cells assessed as reduction in cell viability by SRB assay. The class given is functional, cell-based. (In general: The SRB assay estimates cell density from bound dye.)
A short description of series [6]: Cmax in CD-1 mouse at 3 mg/kg, ip measured after 24 hrs by LC-MS/MS analysis. The following applies: in vivo. The format is ADME, organism-based.
Series [7] deals with Vascular endothelial growth factor receptor 1 (Homo sapiens, UniProt P17948). Kind of series: Inhibition of VEGFR1 (unknown origin).
The test system of series [8] is NCI-H1581. Kind of series: Antiproliferative activity against human NCI-H1581 cells assessed as reduction in cell viability by SRB assay. The format is functional, cell-based.
Series [9] has as its system NCI-H1581. The series can be described thus: Antitumor activity against human NCI-H1581 cells xenografted in BALB/c nude mouse assessed as tumor growth inhibition once daily at 10 mg/kg, ip for 24 days relative to control. Particulars: NCI-H1581, 576 h, read-out: TGI.
For another series, the system named is KG-1. The series can be described thus: Antiproliferative activity against human KG-1 cells assessed as reduction in cell viability by SRB assay.
Series [10] concerns MCF7. Kind of series: Antiproliferative activity against human MCF7 cells assessed as reduction in cell viability incubated for 48 hrs by MTT assay. The class given is functional, cell-based. Particulars: MCF7, 48 h.
Series [11] concerns HT-29. Kind of series: Antitumor activity against human HT-29 cells xenografted in BALB/c mouse assessed as reduction in tumor growth at 50 mg/kg, po administered once daily for 14 days relative to control. Particulars: HT-29, 336 h, time 14 day, read-out: TGI. The class given is functional.
In series [12] the test system is HT-29. Kind of series: Antitumor activity against human HT-29 cells xenografted in BALB/c mouse assessed as reduction in tumor growth at 50 mg/kg, ip administered once daily for 14 days relative to control. The following applies: HT-29, 336 h, time 14 day, read-out: TGI. The format is functional.
The next series concerns T47D. Kind of series: Antiproliferative activity against human T47D cells assessed as reduction in cell viability incubated for 72 hrs by MTT assay. The class given is functional, cell-based. Background: Tetrazolium dyes change colour on reduction, which living cells bring about.
The subject of series [13] is MCF7. The series can be described thus: Antiproliferative activity against human MCF7 cells assessed as reduction in cell viability incubated for 72 hrs by MTT assay. The format is functional, cell-based. Particulars: MCF7, 72 h.
Series [14] relates to MDA-MB-231. Kind of series: Antiproliferative activity against human MDA-MB-231 cells assessed as reduction in cell viability incubated for 72 hrs by MTT assay. The class given is functional, cell-based. Particulars: MDA-MB-231, 72 h.
In series [15] the test system is BT-549. The series can be described thus: Antiproliferative activity against human BT-549 cells assessed as inhibition of cell proliferation incubated for 72 hrs by MTT assay. The class given is functional, cell-based. The following applies: BT-549, 72 h.
For series [16], the system named is BT-549. The series can be described thus: Antitumor activity against human BT-549 cells xenografted in BALB/c nude mouse assessed as tumor growth inhibition at 30 mg/kg, sc administered for 20 days relative to control. The format is functional. Particulars: BT-549, 480 h, time 20 day, read-out: TGI.
The subject of the next series is MDA-MB-453. The series can be described thus: Antiproliferative activity against human MDA-MB-453 cells assessed as reduction in cell viability incubated for 72 hrs by MTT assay. The format is functional, cell-based. The following applies: MDA-MB-453, 72 h.
For another series, the system named is MIA PaCa-2. Kind of series: Antiproliferative activity against human MIA PaCa-2 cells measured after 72 hrs by MTT assay. Particulars: MIA PaCa-2, 72 h. The format is functional, cell-based.
Series [17] relates to B16-F10. Kind of series: Antiproliferative activity against mouse B16-F10 cells assessed as reduction in cell proliferation incubated for 4 days by crystal violet based assay. The following applies: B16-F10, 96 h. The format is functional.
For the next series, the system named is Panc02. Kind of series: Antiproliferative activity against mouse Panc02 cells measured after 72 hrs by MTT assay. The following applies: Panc02, 72 h. The format is functional, cell-based.
Another series has as its system COLO357. Kind of series: Inhibition of cell growth in human COLO357 cells incubated for 72 hrs by MTT assay. The class given is functional, cell-based. The following applies: COLO357, 72 h.
For series [18], the system named is MDA-MB-231. The series can be described thus: Antiproliferative activity against human MDA-MB-231 cells assessed as reduction in cell viability incubated for 48 hrs by MTT assay. The format is functional, cell-based. Particulars: MDA-MB-231, 48 h.
Another series deals with PANC-1. The series can be described thus: Anticancer activity against human PANC-1 cells assessed as reduction in cell viability by measuring ATP level incubated for 24 hrs by CellTiter-Glo assay. The format is functional, cell-based. Particulars: PANC-1, 24 h.
Series [19] relates to B16-F10. The series can be described thus: Antitumor activity against mouse B16-F10 cells implanted in C57BL/6 mouse assessed tumor growth inhibition at 2.5 mg/kg, ip measured for 14 days relative to control. The format is functional. Particulars: B16-F10, 336 h, time 14 day, read-out: TGI.

pIC50: −log10 of the molar value.

Experimental findings from ChEMBL document CHEMBL5620346, “Current scenario of pyrazole hybrids with in vivo therapeutic potential against cancers” (Eur J Med Chem, 2023) are described below.

The pIC50 is the negative decadic logarithm of the IC50, by convention in mol/L. What is called AUC is concentration integrated over time. A word on the half-life: it is the time in which the quantity being followed falls by half. For orientation: Cmax means the highest concentration seen after dosing.

Chain of Vascular endothelial growth factor receptor 1 (P17948 whole entry): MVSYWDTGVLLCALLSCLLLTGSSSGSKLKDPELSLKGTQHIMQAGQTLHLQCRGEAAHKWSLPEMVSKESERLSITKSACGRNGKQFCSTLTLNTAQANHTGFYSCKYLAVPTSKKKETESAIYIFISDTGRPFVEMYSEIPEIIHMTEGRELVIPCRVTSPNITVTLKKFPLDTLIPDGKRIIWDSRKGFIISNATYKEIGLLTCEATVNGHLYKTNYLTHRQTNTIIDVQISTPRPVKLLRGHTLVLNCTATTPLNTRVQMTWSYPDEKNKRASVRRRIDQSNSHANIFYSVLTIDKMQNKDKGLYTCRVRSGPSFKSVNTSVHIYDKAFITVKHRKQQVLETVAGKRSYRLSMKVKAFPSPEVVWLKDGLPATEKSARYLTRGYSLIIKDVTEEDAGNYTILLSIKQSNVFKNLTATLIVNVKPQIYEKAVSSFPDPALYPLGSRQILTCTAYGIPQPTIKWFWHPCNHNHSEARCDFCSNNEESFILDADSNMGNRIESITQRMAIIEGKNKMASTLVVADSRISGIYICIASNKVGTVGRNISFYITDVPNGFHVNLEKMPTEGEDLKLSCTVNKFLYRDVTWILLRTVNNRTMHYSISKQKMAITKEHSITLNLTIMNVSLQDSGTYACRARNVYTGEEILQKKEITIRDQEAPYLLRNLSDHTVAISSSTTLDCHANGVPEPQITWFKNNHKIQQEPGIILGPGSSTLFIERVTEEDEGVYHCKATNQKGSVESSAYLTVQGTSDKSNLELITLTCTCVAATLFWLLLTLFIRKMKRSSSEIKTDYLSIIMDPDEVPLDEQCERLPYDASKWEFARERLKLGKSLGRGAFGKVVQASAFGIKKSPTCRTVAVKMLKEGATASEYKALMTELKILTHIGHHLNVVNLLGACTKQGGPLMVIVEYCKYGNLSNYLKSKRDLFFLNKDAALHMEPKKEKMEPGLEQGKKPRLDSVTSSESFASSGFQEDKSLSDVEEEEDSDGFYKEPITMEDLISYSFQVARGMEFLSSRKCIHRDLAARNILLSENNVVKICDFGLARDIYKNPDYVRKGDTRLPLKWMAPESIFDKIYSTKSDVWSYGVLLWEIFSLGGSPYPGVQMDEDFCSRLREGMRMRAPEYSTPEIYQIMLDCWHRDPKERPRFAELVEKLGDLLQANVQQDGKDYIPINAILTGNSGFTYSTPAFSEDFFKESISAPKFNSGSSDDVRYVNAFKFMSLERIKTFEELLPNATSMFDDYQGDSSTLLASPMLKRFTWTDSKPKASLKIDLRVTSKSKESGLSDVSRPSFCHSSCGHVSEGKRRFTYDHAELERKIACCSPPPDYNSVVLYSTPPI
Chain of Vascular endothelial growth factor receptor 2 (P35968 whole entry): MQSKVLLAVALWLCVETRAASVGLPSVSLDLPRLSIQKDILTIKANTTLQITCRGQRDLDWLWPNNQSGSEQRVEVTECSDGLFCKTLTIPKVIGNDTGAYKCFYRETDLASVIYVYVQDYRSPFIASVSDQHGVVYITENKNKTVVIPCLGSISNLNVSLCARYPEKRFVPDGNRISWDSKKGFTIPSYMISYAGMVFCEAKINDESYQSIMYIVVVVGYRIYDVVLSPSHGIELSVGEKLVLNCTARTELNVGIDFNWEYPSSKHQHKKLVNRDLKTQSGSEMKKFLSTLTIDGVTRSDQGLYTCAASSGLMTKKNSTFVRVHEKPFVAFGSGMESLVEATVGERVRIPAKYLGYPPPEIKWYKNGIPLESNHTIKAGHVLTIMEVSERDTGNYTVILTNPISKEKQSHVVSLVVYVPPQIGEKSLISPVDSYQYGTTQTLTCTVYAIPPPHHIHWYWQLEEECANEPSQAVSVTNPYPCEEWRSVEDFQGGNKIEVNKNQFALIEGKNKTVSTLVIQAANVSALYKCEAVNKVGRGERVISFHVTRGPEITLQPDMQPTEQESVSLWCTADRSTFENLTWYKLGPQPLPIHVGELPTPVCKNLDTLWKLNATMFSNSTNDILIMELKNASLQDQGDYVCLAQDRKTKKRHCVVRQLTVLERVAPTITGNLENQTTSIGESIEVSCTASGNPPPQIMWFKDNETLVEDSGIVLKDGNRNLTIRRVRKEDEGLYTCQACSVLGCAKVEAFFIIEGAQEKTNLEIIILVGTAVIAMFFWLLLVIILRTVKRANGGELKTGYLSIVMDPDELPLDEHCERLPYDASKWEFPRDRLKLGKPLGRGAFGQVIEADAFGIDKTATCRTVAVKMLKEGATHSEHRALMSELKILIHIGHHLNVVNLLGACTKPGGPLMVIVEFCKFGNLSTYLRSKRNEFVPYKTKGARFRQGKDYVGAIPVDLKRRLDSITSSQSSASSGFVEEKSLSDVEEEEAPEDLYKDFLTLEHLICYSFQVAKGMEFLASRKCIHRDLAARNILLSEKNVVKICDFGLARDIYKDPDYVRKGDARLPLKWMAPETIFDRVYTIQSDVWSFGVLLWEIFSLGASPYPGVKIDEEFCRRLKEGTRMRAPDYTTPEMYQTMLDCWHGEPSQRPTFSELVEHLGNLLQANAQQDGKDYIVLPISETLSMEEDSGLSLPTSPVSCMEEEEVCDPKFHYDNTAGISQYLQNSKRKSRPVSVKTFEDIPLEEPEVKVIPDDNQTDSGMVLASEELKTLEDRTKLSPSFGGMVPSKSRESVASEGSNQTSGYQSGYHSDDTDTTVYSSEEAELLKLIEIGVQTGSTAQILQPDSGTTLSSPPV

`Cc1ccc2oc(-c3c4c(N)n[nH]c(=O)c4nn3-c3ccc(NC(=O)/C=C/CN(C)C)cc3)c(C)c2c1`: the inhibition in vivo at 50 mg/kg with NCI-H1581 [1] turned out to be 91.6%. Besides, the pIC50 in series [2] was 7.37; in series [5], 8.72; in the series with SNU-16, greater than 9.52; in [7] it was 8.52; in the series on NCI-H1581 [8] it was 7.37; with KG-1, 7.37. In series [3], the exposure (AUC) was determined as 704 ng·h/mL. Moreover, in [4], the half-life was 3.7 h. The Cmax in [6] turned out to be 282 ng/mL. In the series with NCI-H1581 [9], the inhibition in vivo at 10 mg/kg turned out to be 74.4%.
Turning to `Cc1ccc(C2CC(c3ccc(F)cc3)=NN2C(=O)CN2C(=O)CCC2=O)cc1` (configuration not stated), the pIC50 in the series on MCF7 [10] is 6.11. The figures for the inhibition in vivo at 50 mg/kg with HT-29 [11] and in the series on HT-29 [12] were 60% and 66%, respectively.
Turning to `CN(C)S(=O)(=O)Nc1cccc(-c2cnn(-c3ccc(C(F)(F)F)cc3)c2)c1`, the pIC50 in the series with T47D, in the series with MCF7 [13], in the series with MDA-MB-231 [14], in the series with BT-549 [15] and with MDA-MB-453 was 5.46 throughout. In addition, the inhibition in vivo at 30 mg/kg in the series on BT-549 [16] was roughly 50%.
Take `Clc1ccccc1C(c1ccccc1)(c1ccc(CCC[P+](c2ccccc2)(c2ccccc2)c2ccccc2)cc1)n1cccn1` (configuration not stated): the pIC50 with MIA PaCa-2, with B16-F10 [17], in the series with Panc02, with COLO357, with MDA-MB-231 [18] and in the series on PANC-1 was 5.88 in each case. Moreover, in the series on B16-F10 [19], the inhibition in vivo at 2.5 mg/kg is 60%.
